Measurements reported in article PMC10644263 (Biochemistry, 2020).
Values joined by “and” are separate entries in the source; they are usually repeats but may differ in a detail not shown here. Equal entries are not always repeated.

What was measured:
HpMTAN = target: T1, HpMTAN (Helicobacter pylori, UniProt Q9ZMY2); experiment: Inhibition of HpMTAN; format: biochemical; conditions: 37 °C
T1 sequence (Q9ZMY2 1-230): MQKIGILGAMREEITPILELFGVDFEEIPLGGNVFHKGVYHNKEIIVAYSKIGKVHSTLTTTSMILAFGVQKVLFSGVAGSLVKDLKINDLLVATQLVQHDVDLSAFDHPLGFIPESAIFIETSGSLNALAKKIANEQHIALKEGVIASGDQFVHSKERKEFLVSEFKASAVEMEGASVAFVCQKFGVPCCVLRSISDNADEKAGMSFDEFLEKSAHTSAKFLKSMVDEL

SaMTAN = target: T2, SaMTAN (Staphylococcus aureus, UniProt Q5HFG2); experiment: Inhibition of SaMTAN; format: biochemical; conditions: 37 °C, compared with MTDIA
T2 sequence (Q5HFG2 1-228): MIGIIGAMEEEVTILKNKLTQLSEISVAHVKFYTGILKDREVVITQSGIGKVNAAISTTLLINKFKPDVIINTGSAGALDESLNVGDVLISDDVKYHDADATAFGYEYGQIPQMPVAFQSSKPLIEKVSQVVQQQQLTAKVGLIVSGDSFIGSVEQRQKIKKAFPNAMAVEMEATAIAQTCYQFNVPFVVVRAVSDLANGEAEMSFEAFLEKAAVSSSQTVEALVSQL

| Compound | improvement of Ki/affinity relative to MTDIA for HpMTAN (HpMTAN; compared with MTDIA) | improvement of Ki relative to MTDIA for SaMTAN (SaMTAN) | Ki (HpMTAN; read-out: Ki (dissociation constant) for HpMTAN) |
| --- | --- | --- | --- |
| Nc1ncnc2c(CN3C[C@H](CSCCOCCO)[C@@H](O)C3)c[nH]c12 [Compound 2] | 14 fold | 81 fold |  |
| CSC[C@H]1CN(Cc2c[nH]c3c(N)ncnc23)C[C@@H]1O [MTDIA, Methylthio-DADMe-Immucillin-A] |  |  | 1 nM and 1.25 nM |
